For 15 molecules, TGI and GI50 results are on record in PubChem BioAssay (NCI).

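96-well plates; 48 h exposure; 5 concentrations. Endpoints by linear interpolation between flanking doses. Not reached: highest tested concentration assigned. The concentration for 50% growth inhibition is given as GI50. Definition used: TGI = concentration required for complete inhibition of growth.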 Where only a bound is given, the exact number is not on record here.

Some test systems named below: T-47D breast; EKVX NSCLC; K-562 leukemia; UACC-62 melanoma; SF-539 CNS; SW-620 colon; ACHN renal; SNB-19 CNS; U251 CNS; UO-31 renal.
Holding throughout (assay): NCI anticancer screen, dose series, 48 h

Take `CCSCC(=O)N1CCc2c([nH]c3ccccc23)C1=O`: the TGI with T-47D breast, in the assay with EKVX NSCLC, with K-562 leukemia, with UACC-62 melanoma, in the assay on SF-539 CNS and in the assay with SW-620 colon was over 100 µM throughout. Besides, the TGI with ACHN renal, with SNB-19 CNS, with U251 CNS and with UO-31 renal was over 100 µM each time.

Regarding `OC12C3C4CC5C(C4[C@@H]1Br)C2[C@@](O)(c1c(F)c(F)c(F)c(F)c1F)C53` (stereo not given in full), the TGI is over 100 µM in the assay with T-47D breast; 98.9 µM in the assay on EKVX NSCLC; 61.5 µM in the assay with K-562 leukemia; over 100 µM in the assay with UACC-62 melanoma; over 100 µM in the assay on SF-539 CNS; over 100 µM in the assay on SW-620 colon. Moreover, the TGI in the assay with ACHN renal is over 100 µM; in the assay on SNB-19 CNS it was over 100 µM; in the assay on U251 CNS, over 100 µM; in the assay on UO-31 renal, 95.2 µM.

`N#Cc1nc(C(F)(F)F)oc1N`: the TGI in the assay with T-47D breast, in the assay with EKVX NSCLC, with K-562 leukemia, in the assay on UACC-62 melanoma, in the assay on SF-539 CNS and in the assay on SW-620 colon was over 100 µM each time. Further, the TGI with ACHN renal, in the assay with SNB-19 CNS, in the assay with U251 CNS and with UO-31 renal was over 100 µM throughout.

As for `O=c1c2ncn(C3CCCCO3)c2n(-c2ccccc2)c(=S)n1-c1ccccc1` (stereo not given), the TGI in the assay on T-47D breast was over 77.3 µM; with EKVX NSCLC, over 87.9 µM; with K-562 leukemia, over 100 µM; with UACC-62 melanoma, 56.5 µM; with SF-539 CNS, 32.4 µM; with SW-620 colon it was over 100 µM. In addition, the TGI was over 100 µM in the assay with ACHN renal, over 69.4 µM in the assay on SNB-19 CNS, over 74.2 µM with U251 CNS and over 71.4 µM in the assay with UO-31 renal.

As for `COc1ccc(OC)c(C(=O)/C=C/c2cc(O)c(O)cc2F)c1`, the TGI is over 100 µM in the assay on T-47D breast; over 77.4 µM in the assay on EKVX NSCLC; over 27.8 µM in the assay on K-562 leukemia; 11.7 µM in the assay on UACC-62 melanoma; 0.626 µM in the assay on SF-539 CNS; over 66.5 µM with SW-620 colon. The TGI in the assay with ACHN renal was over 50.3 µM; in the assay on SNB-19 CNS, over 35 µM; with U251 CNS it was 12.3 µM; in the assay with UO-31 renal, 28.7 µM.

Consider `O=c1[nH]nc(Cc2ccccc2)n1/N=C/c1ccc([N+](=O)[O-])o1`, for which the TGI with T-47D breast is 79.1 µM; in the assay on EKVX NSCLC, 16.7 µM; with K-562 leukemia, over 100 µM; with UACC-62 melanoma, 4.56 µM; with SF-539 CNS it was 8.94 µM; with SW-620 colon, over 100 µM. The TGI was 27.4 µM in the assay on ACHN renal, 38.1 µM in the assay on SNB-19 CNS, 16.3 µM with U251 CNS and over 100 µM in the assay with UO-31 renal.

As for `c1ccc2c(c1)nc1n2CCNC1`, the TGI in the assay with T-47D breast, with EKVX NSCLC, with K-562 leukemia, with UACC-62 melanoma, in the assay on SF-539 CNS and in the assay with SW-620 colon was over 100 µM each time. Moreover, the TGI in the assay with ACHN renal, in the assay on SNB-19 CNS, with U251 CNS and in the assay on UO-31 renal was over 100 µM each time.

As for `Cc1ccc(S(=O)(=O)Nc2nc3ccccc3c(=O)n2C2CCCCC2)cc1`, the TGI in the assay with T-47D breast, in the assay on EKVX NSCLC, in the assay on K-562 leukemia, with UACC-62 melanoma, in the assay with SF-539 CNS and in the assay with SW-620 colon was over 100 µM throughout. In addition, the TGI in the assay on ACHN renal, in the assay with SNB-19 CNS, in the assay with U251 CNS and in the assay with UO-31 renal was over 100 µM in each case.

In the case of `COc1ccc(C[C@H]2NC(=O)/C=C/C[C@@H]([C@H](C)[C@H]3O[C@@H]3c3ccccc3)OC(=O)[C@H](CC(C)C)OC(=O)[C@H](C)CNC2=O)cc1`, the TGI in the assay with T-47D breast was over 0.0001 µM; with EKVX NSCLC, over 9.66e-05 µM; in the assay with K-562 leukemia it was over 8.13e-05 µM; in the assay with UACC-62 melanoma, 3.38e-05 µM; with SF-539 CNS it was 4.36e-05 µM; in the assay on SW-620 colon, over 0.0001 µM. Moreover, the TGI in the assay with ACHN renal, in the assay on SNB-19 CNS, in the assay on U251 CNS and in the assay with UO-31 renal was over 0.0001 µM throughout.

In the case of `Cc1ccc(S(=O)(=O)N(CC(O)c2ccccc2)c2ccccc2F)cc1` (stereo not given), the TGI with T-47D breast was 40.7 µM; with EKVX NSCLC, over 100 µM; in the assay with K-562 leukemia it was 44.5 µM; in the assay with UACC-62 melanoma it was 28 µM; in the assay on SF-539 CNS it was 30.7 µM; in the assay on SW-620 colon, 39.9 µM. For the same molecule, the TGI came to 40.1 µM in the assay with ACHN renal, 37.5 µM in the assay on SNB-19 CNS, 36.7 µM in the assay with U251 CNS and 29.8 µM in the assay on UO-31 renal.

For `COc1ccc(-c2cc(C3CC3)nc(SCC(=O)O)c2C#N)cc1`, the TGI with T-47D breast, with EKVX NSCLC, with K-562 leukemia, with UACC-62 melanoma, in the assay with SF-539 CNS and with SW-620 colon was over 100 µM each time. Besides, the TGI in the assay with ACHN renal was over 100 µM; in the assay on SNB-19 CNS, over 100 µM; in the assay on U251 CNS, over 100 µM; in the assay on UO-31 renal it was 11.1 µM.

On to `Cc1ccc(C(=O)Cc2nc3ncccc3[nH]c2=O)cc1`, for which the TGI in the assay on T-47D breast is over 100 µM; with EKVX NSCLC, over 100 µM; in the assay with K-562 leukemia, over 100 µM; with UACC-62 melanoma, over 100 µM; with SF-539 CNS, 74.9 µM; with SW-620 colon, over 100 µM. The TGI was 69.3 µM with ACHN renal, over 100 µM with SNB-19 CNS, 52.7 µM in the assay on U251 CNS and over 100 µM in the assay with UO-31 renal.

For `O=C(Nc1ccc(-n2cc(-c3ccncc3)c(-c3ccc(O)c(Cl)c3)n2)cc1)c1cc(Cl)cc(Cl)c1`, the GI50 with T-47D breast was 18.6 µM; with EKVX NSCLC it was 18.2 µM; in the assay with K-562 leukemia, 1.02 µM; in the assay on UACC-62 melanoma, 3.01 µM; with SF-539 CNS it was 1.01 µM; in the assay on SW-620 colon it was 2.21 µM. For the same molecule, the GI50 was 1.51 µM in the assay with ACHN renal, 2.95 µM in the assay with SNB-19 CNS, 1.32 µM in the assay on U251 CNS and 1.62 µM in the assay on UO-31 renal. In addition, the TGI in the assay on T-47D breast, in the assay with EKVX NSCLC, in the assay on K-562 leukemia, with UACC-62 melanoma, in the assay on SF-539 CNS and with SW-620 colon was over 32.5 µM each time. For the same molecule, the TGI with ACHN renal, with SNB-19 CNS, in the assay with U251 CNS and in the assay on UO-31 renal was over 32.5 µM throughout.

`c1ccc2c(c1)CCN(C1=NCCO1)C2`: the TGI in the assay with T-47D breast, with EKVX NSCLC, with K-562 leukemia, in the assay on UACC-62 melanoma, with SF-539 CNS and with SW-620 colon was over 10 µM throughout. Besides, the TGI in the assay on ACHN renal, with SNB-19 CNS, in the assay with U251 CNS and in the assay with UO-31 renal was over 10 µM throughout.

Take `C/C=C1/CN2[C@@H](C3=C[C@@H]4[C@@H]5N(C3=O)c3ccccc3[C@@]53CCN5C/C(=C/C)[C@@H]4C[C@H]53)C[C@@]34c5ccccc5N5C(=O)CC=C([C@H]1C[C@H]23)[C@H]54`: the TGI came to 49.2 µM in the assay on T-47D breast; 12.1 µM in the assay on EKVX NSCLC; 50 µM with K-562 leukemia; 9.1 µM in the assay with UACC-62 melanoma; 2.87 µM in the assay on SF-539 CNS; 10.4 µM in the assay on SW-620 colon. For the same molecule, the TGI in the assay with ACHN renal came out at 12.1 µM; in the assay with SNB-19 CNS, 14.7 µM; in the assay on U251 CNS, 7.67 µM; in the assay on UO-31 renal, 8.34 µM.
